Measured values published in PMC11091889, “Silver Organometallics that are Highly Potent Thioredoxin and Glutathione Reductase Inhibitors: Exploring the Correlations of Solution Chemistry with the Strong Antibacterial Effects” (ACS Infectious Diseases, 2024).

Legend:
[1] = Conductometry: molar conductivity of silver complexes in DMSO; type: physicochemical; settings: 1.0 mM in DMSO, calculated as monocarbene (NHC)AgX
Protocol: Since both the neutral monocarbene and the ionic biscarbene form of the complexes may exist in various proportions in the solution, conductometry studies were performed to reveal the dominant structure. The molar conductivity of 1.0 mM solutions of each complex in DMSO was determined after different periods up to 24 h using AgNO3 as 1:1 electrolyte reference (see Table 1). According to the literature, the expected range of molar conductivity for 1:1 electrolytes in DMSO is 35–90 S cm^2 mol^–1.[45],[46]
Conductivity measurements were performed using an Apera Instruments EC9500 conductivity meter. Solutions (as indicated, otherwise 1.0 mM) of all compounds were prepared using freshly distilled DMSO with a specific electrical conductivity of ≤3 × 10^–8 S cm^–1. The conductivities were measured at 25 ± 2 °C immediately after complete dissolution and after 24 h.

[2] = system: E. coli (DSM1116, ATCC 9637); experiment: microbe, parasite or virus in culture; type: cell-based, Escherichia coli; settings: n = 3, MHB; for EC50 / MIC E. coli: mean ± standard error; for MIC E. coli / MIC E. coli (value in brackets): 22 h
Protocol: (§1) The antibacterial effect of the silver NHC complexes and selected ligands was evaluated in two Gram-positive [Enterococcus faecium, methicillin resistant S. aureus, (MRSA)] and in four Gram-negative (Acinetobacter baumannii, Escherichia coli, Klebsiella pneumoniae, and Pseudomonas aeruginosa) pathogenic bacterial strains using broth microdilution assays. The resulting minimal inhibitory concentrations (MICs, Table 2) and EC50 (Table S6) were determined by a curve fitting procedure. Silver nitrate (AgNO3), SSD, and various antibiotics were used as references.
(§2) The following strains of ESKAPE panel were utilized and maintained at 37 °C in MHB (21 g/L Müller Hinton broth, pH 7.4) or TSY (30 g/L trypticase soy broth, 3 g/L yeast extract, pH 7.0–7.2) media: A. baumannii (DSM 30007, ATCC 19606), E. coli (DSM1116, ATCC 9637), K. pneumoniae (DSM 11678, ATCC33495), P. aeruginosa PA7 (DSM 24068) in MHB; E. faecium (DSM 20477, ATCC 19434), and S. aureus MRSA (DSM 11822, ICB 25701) in TSY. MIC values were determined following a standardized protocol in broth microdilution assays. The compounds and reference substances (AgNO3 and SSD) were serially diluted from 64 to 1 μg/mL. Starting inocula of 2–8 × 10^5 CFU/mL in MHB or TSY media at 37 °C were used, and serial dilutions were carried out in 96-well microtiter plates in duplicate. After incubation of the plates for 22 h at 37 °C, the absorbance at 600 nm was measured using The Spark multimode microplate reader (Tecan Trading AG). The MIC values for the tested compounds were determined in three independent experiments and presented in μM with standard errors and also in μg/mL. Amikacin (P. aeruginosa), linezolid (S. aureus), and ciprofloxacin (all other strains) served as positive controls. The MIC and EC50 values were determined by curve fitting with Sigma Plot. To determine the effect of the culture medium on the activity of silver compounds, the assay was performed using MHB, TSY, or DMEM (Gibco). To observe the effect of individual components of TSY medium, antibacterial tests were performed using MHB with addition of tryptone (17 g/L) or yeast extract (3 g/L, both were purchased from Sigma).

[3] = system: P. aeruginosa PA7 (DSM 24068); experiment: microbe, parasite or virus in culture; type: cell-based, Pseudomonas aeruginosa; settings: n = 3, MHB; for MIC P. aeruginosa / EC50: mean ± standard error; for MIC P. aeruginosa / MIC P. aeruginosa (value in brackets): 22 h; for EC50: read-out: EC50 P. aeruginosa
Protocol: as §1, §2

[4] = system: K. pneumoniae (DSM 11678, ATCC33495); experiment: Broth microdilution antibacterial assay; type: cell-based, Klebsiella pneumoniae; settings: n = 3, MHB; for MIC K. pneumoniae / EC50: mean ± standard error; for MIC K. pneumoniae / MIC K. pneumoniae (value in brackets): 22 h; for EC50: read-out: EC50 K. pneumoniae
Protocol: as §1, §2

[5] = system: A. baumannii (DSM 30007, ATCC 19606); experiment: Broth microdilution antibacterial assay; type: cell-based, Acinetobacter baumannii; settings: n = 3, MHB; for MIC A. baumannii / EC50: mean ± standard error; for MIC A. baumannii / MIC A. baumannii (value in brackets): 22 h; for EC50: read-out: EC50 A. baumannii
Protocol: as §1, §2

[6] = system: S. aureus MRSA (DSM 11822, ICB 25701); experiment: microbe, parasite or virus in culture; type: cell-based, methicillin resistant S. aureus; settings: n = 3, TSY; for MIC MRSA / EC50: mean ± standard error; for MIC MRSA / MIC MRSA (value in brackets): 22 h; for EC50: read-out: EC50 MRSA
Protocol: as §1
The importance of the culture medium used in antibacterial assays has been pointed out for antibiotics and in particular for silver.[53]−[55] In our recent studies, tryptic soy yeast (TSY) broth has been used for growing Gram-positive bacteria. Two components thereof, tryptone and yeast extract, have been reported to affect the antibacterial activity of silver nitrate.[55] Moreover, such an effect was also observed for other media containing at least one of those components.[11],[53] […] Silver nitrate served as a reference, and three different growth media were studied, namely, Müller-Hinton Broth (MHB, commonly used for Gram-negative bacteria), TSY broth (commonly used for Gram-positive bacteria), and DMEM supplemented with 10% FCS (commonly used for growth of mammalian and human cells).
as §2

[7] = system: E. faecium (DSM 20477, ATCC 19434); experiment: Broth microdilution antibacterial assay; type: cell-based, Enterococcus faecium; settings: n = 3, TSY; for MIC E. faecium / EC50: mean ± standard error; for MIC E. faecium / MIC E. faecium (value in brackets): 22 h; for EC50: read-out: EC50 E. faecium
Protocol: as §1, §2

[8] = system: P. aeruginosa (PA 14) biofilm; experiment: Inhibition of biofilm formation, crystal violet staining; type: cell-based, Pseudomonas aeruginosa; settings: for smallest active concentration for biofilm inhibition: concentration at which the % inhibition was found; for biofilm inhibition: ± SD, n = 4, at the respective smallest active concentration, 24 h
Excerpt: Silver and its complexes can strongly affect the growth of biofilms.[56]−[58] In view of the promising activity against Gram-negative bacteria as mentioned above, we evaluated the inhibiting effect of the silver complexes on biofilm production by P. aeruginosa by a method based on crystal violet staining (Table 4 and Figure S14). Complexes 3a–c and 4a–c were selected for the test based on the results of solubility, stability, and antibacterial screening. […] The lower activity of 3c might be explained by its lower kinetic solubility in the aqueous environment (see Figure 4).
The antibiofilm activity was determined according to a literature method.[73] A 1 mL aliquot of P. aeruginosa (PA 14) was taken from −20 °C stock, incubated in 25 mL LB medium (Luria–Bertani Broth) in a 250 mL flask, and kept at 37 °C at 100 rpm overnight. The optical density at 600 nm (OD600) of the culture solution was adjusted to match the turbidity of a 0.1 McFarland standard in M63 medium.[74] Selected compounds were mixed with 150 μL of bacterial solution in U-bottom 96 well plates to the final respective concentrations (25–0.2 μg/mL). The plates were further incubated at 37 °C for 24 h while shaking at 150 rpm. Afterward, the plates were rinsed once with 150 μL of PBS buffer, and the biofilms were stained using 150 μL of crystal violet (0.1%) staining at room temperature for 15 min and then rinsed once with PBS buffer. After rinsing, 150 μL of ethanol (95%) was added, and the absorbance was quantified using a plate reader (Synergy 2, BioTek, Santa Clara, USA) at 550 nm. The resulting antibiofilm activity is presented as percentage of inhibition at the respective smallest active concentration in μM with standard deviation (SD) of two repeats with duplicates. Myxovalargin A and DMSO (2.5%) were used as the positive and negative controls, respectively.

COCCn1[c]([Ag][Cl])[n+](Cc2ccccn2)c2ccccc21 [4a]
Molar conductivity ΛM ([1]; 1 h after dissolution): 3.38 S cm^2 mol^–^1 | Molar conductivity ΛM ([1]; 24 h after dissolution): 3.01 S cm^2 mol^–^1 | EC50 [2]: 31.1 ± 1.8 µM | MIC E. coli [2]: 39.0 ± 0.0 µM | MIC E. coli (value in brackets) [2]: 16 µg/mL | MIC P. aeruginosa [3]: 26.0 ± 6.5 µM | EC50 [3]: 9.6 ± 0.3 µM | MIC P. aeruginosa (value in brackets) [3]: 11 µg/mL | MIC K. pneumoniae [4]: 9.74 ± 0.0 µM | EC50 [4]: 5.2 ± 0.1 µM | MIC K. pneumoniae (value in brackets) [4]: 4 µg/mL | MIC A. baumannii [5]: 16.2 ± 3.2 µM | EC50 [5]: 1.9 ± 0.4 µM | MIC A. baumannii (value in brackets) [5]: 7 µg/mL | MIC MRSA [6]: 156 ± 0.0 µM | EC50 [6]: 85.7 ± 0.6 µM | MIC MRSA (value in brackets) [6]: 64 µg/mL | MIC E. faecium [7]: 156 ± 0.0 µM | EC50 [7]: 123 ± 6.1 µM | MIC E. faecium (value in brackets) [7]: 64 µg/mL | smallest active concentration for biofilm inhibition [8]: 7.6 µM | biofilm inhibition [8]: 71 ± 3%

COCCn1[c](=[Ag][Br])n(Cc2ccccn2)c2ccccc21 [4b, Bromido (1-(2-Methoxyethyl)-3-(pyridin-2-ylmethyl)-benzimidazol-2-ylidene) Silver(I)]
Molar conductivity ΛM ([1]; 1 h after dissolution): 5.11 S cm^2 mol^–^1 | Molar conductivity ΛM ([1]; 24 h after dissolution): 5.08 S cm^2 mol^–^1 | EC50 [2]: 59.2 ± 4.3 µM | MIC E. coli [2]: 70.3 ± 0.0 µM | MIC E. coli (value in brackets) [2]: 32 µg/mL | MIC P. aeruginosa [3]: 23.4 ± 5.9 µM | EC50 [3]: 8.6 ± 1.1 µM | MIC P. aeruginosa (value in brackets) [3]: 11 µg/mL | MIC K. pneumoniae [4]: 17.6 ± 0.0 µM | EC50 [4]: 9.8 ± 1 µM | MIC K. pneumoniae (value in brackets) [4]: 8 µg/mL | MIC A. baumannii [5]: 11.7 ± 2.9 µM | EC50 [5]: 2.1 ± 0.1 µM | MIC A. baumannii (value in brackets) [5]: 5 µg/mL | MIC MRSA [6]: 141 ± 0.0 µM | EC50 [6]: 78.3 ± 2 µM | MIC MRSA (value in brackets) [6]: 64 µg/mL | MIC E. faecium [7]: 141 ± 0.0 µM | EC50 [7]: 120 ± 0.8 µM | MIC E. faecium (value in brackets) [7]: 64 µg/mL | smallest active concentration for biofilm inhibition [8]: 6.8 µM | biofilm inhibition [8]: 70 ± 5%

[Cl][Ag][c]1n(Cc2ccccn2)c2ccccc2[n+]1Cc1ccccn1 [6a]
Molar conductivity ΛM ([1]; 1 h after dissolution): 3.75 S cm^2 mol^–^1 | Molar conductivity ΛM ([1]; 24 h after dissolution): 4.15 S cm^2 mol^–^1 | EC50 [2]: 38.1 ± 6.9 µM | MIC E. coli [2]: 48.1 ± 12.0 µM | MIC E. coli (value in brackets) [2]: 21 µg/mL | MIC P. aeruginosa [3]: 60.1 ± 12.0 µM | EC50 [3]: 33.6 ± 5.8 µM | MIC P. aeruginosa (value in brackets) [3]: 27 µg/mL | MIC K. pneumoniae [4]: 9.02 ± 0.0 µM | EC50 [4]: 5.9 ± 0.2 µM | MIC K. pneumoniae (value in brackets) [4]: 4 µg/mL | MIC A. baumannii [5]: 9.0 ± 0.0 µM | EC50 [5]: 1.6 ± 0.1 µM | MIC A. baumannii (value in brackets) [5]: 4 µg/mL | MIC MRSA [6]: 144 ± 0.0 µM | EC50 [6]: 91.3 ± 0.6 µM | MIC MRSA (value in brackets) [6]: 64 µg/mL | MIC E. faecium [7]: 144 ± 0.0 µM | EC50 [7]: 133 ± 0.6 µM | MIC E. faecium (value in brackets) [7]: 64 µg/mL

[Br][Ag][c]1n(Cc2ccccn2)c2ccccc2[n+]1Cc1ccccn1 [6b]
Molar conductivity ΛM ([1]; 1 h after dissolution): 6.13 S cm^2 mol^–^1 | Molar conductivity ΛM ([1]; 24 h after dissolution): 6.50 S cm^2 mol^–^1 | EC50 [2]: 14.6 ± 1 µM | MIC E. coli [2]: 21.9 ± 5.5 µM | MIC E. coli (value in brackets) [2]: 10 µg/mL | MIC P. aeruginosa [3]: 27.3 ± 5.5 µM | EC50 [3]: 13.5 ± 3.7 µM | MIC P. aeruginosa (value in brackets) [3]: 13 µg/mL | MIC K. pneumoniae [4]: 13.7 ± 0.0 µM | EC50 [4]: 6.4 ± 0.2 µM | MIC K. pneumoniae (value in brackets) [4]: 7 µg/mL | MIC A. baumannii [5]: 8.2 ± 0.0 µM | EC50 [5]: 0.47 ± 0.02 µM | MIC A. baumannii (value in brackets) [5]: 4 µg/mL | MIC MRSA [6]: 132 ± 0.0 µM | EC50 [6]: 90.7 ± 4.5 µM | MIC MRSA (value in brackets) [6]: 64 µg/mL | MIC E. faecium [7]: 132 ± 0.0 µM | EC50 [7]: 105 ± 0.1 µM | MIC E. faecium (value in brackets) [7]: 64 µg/mL

myxovalargin A [reference compound]
smallest active concentration for biofilm inhibition [8]: 18.6 µM | biofilm inhibition [8]: 68 ± 0%
